Experiments:
[1] = tested on: bone marrow derived dendritic cells (BMDCs); assay: Viability / toxicity in treated BMDCs; format: cell-based; conditions: 10 μM
Text: Given that DCs are the primary target for the polymer-conjugates, Applicants treated bone marrow derived dendritic cells (BMDCs) with various concentrations of TLR7-MA, p(man-TLR), or the synthetic oligonucleotide CpG, a powerful TLR-9 agonist.

TLR7 = molecular target: T1, TLR7 (Homo sapiens, UniProt Q9NYK1); assay: HEK-Blue TLR7-activation reporter cell assay; conditions: media with 2.0 μM agonist (polymer: 2.0 μM of TLR7-MA in polymeric form), 12 h
T1 sequence (Q9NYK1 27-1049): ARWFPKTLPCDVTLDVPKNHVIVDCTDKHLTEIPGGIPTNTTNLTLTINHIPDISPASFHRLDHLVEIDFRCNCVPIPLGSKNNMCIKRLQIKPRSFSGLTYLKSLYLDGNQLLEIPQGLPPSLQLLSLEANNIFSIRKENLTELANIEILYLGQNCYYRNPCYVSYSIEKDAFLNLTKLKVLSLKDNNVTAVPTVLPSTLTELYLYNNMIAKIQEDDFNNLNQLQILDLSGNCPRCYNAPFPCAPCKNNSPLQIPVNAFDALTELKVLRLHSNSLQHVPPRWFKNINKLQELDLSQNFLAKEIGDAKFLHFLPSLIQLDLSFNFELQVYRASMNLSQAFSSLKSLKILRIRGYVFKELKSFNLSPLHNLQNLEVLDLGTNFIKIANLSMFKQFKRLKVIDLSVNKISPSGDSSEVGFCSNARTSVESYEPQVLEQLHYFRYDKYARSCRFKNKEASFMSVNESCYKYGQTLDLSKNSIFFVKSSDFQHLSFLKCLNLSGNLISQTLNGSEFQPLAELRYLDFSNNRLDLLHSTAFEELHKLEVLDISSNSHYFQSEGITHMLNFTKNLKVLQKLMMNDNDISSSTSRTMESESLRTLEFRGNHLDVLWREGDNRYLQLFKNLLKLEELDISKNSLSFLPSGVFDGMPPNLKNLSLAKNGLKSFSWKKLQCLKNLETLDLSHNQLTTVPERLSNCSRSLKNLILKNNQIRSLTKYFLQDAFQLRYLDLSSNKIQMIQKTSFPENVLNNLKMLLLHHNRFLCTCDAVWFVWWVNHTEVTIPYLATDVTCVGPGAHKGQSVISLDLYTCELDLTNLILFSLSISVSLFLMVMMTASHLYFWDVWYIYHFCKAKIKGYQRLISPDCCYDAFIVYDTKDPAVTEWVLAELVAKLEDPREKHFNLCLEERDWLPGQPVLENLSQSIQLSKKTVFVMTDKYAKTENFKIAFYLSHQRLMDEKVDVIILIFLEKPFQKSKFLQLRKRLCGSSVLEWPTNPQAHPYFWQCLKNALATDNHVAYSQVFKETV

[2] = tested on: lymph node resident DC subsets; assay: Uptake of fluorescently labeled OVA by lymph node DC subsets after i.d. injection; format: in vivo, mice; conditions: 12 h
Procedure: Mice were treated with an intradermal injection of fluorescently labeled OVA or fluorescently labeled OVA conjugated to either p(Man) or p(Man-TLR). After 12 h, the lymph nodes of the animals were harvested and the cells of the lymph nodes were analyzed for fluorescently labeled OVA content via flow cytometry. Conjugation of OVA to p(Man-TLR) increases the uptake of OVA by CD8+ cross-presenting DCs (a.), CD4+ activating DCs (b.), CD4−/CD8− lymph node resident DCs (c.), and conventional dermal DCs (d.).
It is contemplated that conjugating p(Man-TLR) to antigens will improve their uptake by DCs and increased DC activation. […] After 12 h, the lymph node resident DC subsets of these animals were analyzed for fOVA.

[3] = tested on: circumsporozite protein (CSP) from Plasmodium falciparum; assay: Example 12: vaccination with malaria antigen CSP formulations, cellular and humoral response; format: in vivo, mice
Procedure: FIG. 17: To characterize the response to an actual vaccinal antigen, and to compare to an advanced clinical adjuvant, the inventors made the polymer conjugate formulation with the P. falciparum antigen CSP (the full-length protein).
FIG. 18: To characterize humoral responses to the CSP-p(Man-TLR) polymer conjugate formulation, Tfh cells were characterized in the spleen and IgG concentrations were measured in the blood.
The inventors benchmarked the performance of antigen-p(Man-TLR) conjugates against other vaccine adjuvant formulations that have been reported to produce effective immune responses, using a malaria antigen, specifically circumsporozite protein (CSP) from Plasmodium falciparum. Mice were treated on days 0 and 21 via intradermal injection into the 4 footpads with CSP-p(Man-TLR), CSP and MPLA/QS-21 liposomes (AS01E), CSP and the adjuvant R848, CSP and poly(I:C), or saline (Vehicle). AS01E is used in a clinical malaria vaccine formulation. All animals treated with formulations containing CSP received 10 μg of CSP. Animals treated with CSP-p(Man-TLR) received 20 μg TLR agonist in the polymeric form. Animals treated with AS01E received 2.5 μg of QS21. Animals treated with CSP and R848 were treated with 20 μg of R848. Animals treated with CSP and poly(I:C) received 15 μg poly(I:C). […] CSP-p(Man-TLR) induced a robust humoral response.

CSP peptide stretches = assay: Breadth of IgG response on arrays of peptides from the sequence of CSP; format: in vivo, mice

In the case of C=C(C)C(=O)NCCOC(=O)NCc1ccc(Cn2c(COCC)nc3c(N)nc4ccccc4c32)cc1 [TLR7-MA, 2-methacrylamidoethyl 4-((4-amino-2-(ethoxymethyl)-1H-imidazo[4,5-c]quinolin-1-yl)methyl)benzylcarbamate], the “cell viability / toxicity” value [1] is reported as “no significant decrease in viability” and the “increase in TLR7 activation” value (TLR7) is reported as 4 fold.

“fOVA-p(Man-TLR): fluorescently labeled Ovalbumin (fOVA) conjugated to p(Man-TLR)” was tested, and the “fOVA positive CD8+ cross presenting DCs vs fOVA” value ([2]; FIG. 9A) was “More than twice as many”, the “increase in number of CD4 activating DCs positive for fOVA vs fOVA” value ([2]; FIG. 9B) was 3 fold and the “targeting of double negative DCs and dermal conventional DCs vs free fOVA” value ([2]; FIG. 9C-D) was “able to target both double negative DCs and dermal conventional DCs”. For the same molecule, the “OVA uptake by DCs vs fOVA” value ([2]; lymph node DCs) was “took up significantly more OVA”.

B1: CSP-p(Man-TLR): P. falciparum circumsporozite protein (CSP, full-length) conjugated to p(Man-TLR) (conjugate, UniProt P02893 1-412, looked up)
chain: MMRKLAILSVSSFLFVEALFQEYQCYGSSSNTRVLNELNYDNAGTNLYNELEMNYYGKQENWYSLKKNSRSLGENDDGNNNNGDNGREGKDEDKRDGNNEDNEKLRKPKHKKLKQPGDGNPDPNANPNVDPNANPNVDPNANPNVDPNANPNANPNANPNANPNANPNANPNANPNANPNANPNANPNANPNANPNANPNANPNANPNVDPNANPNANPNANPNANPNANPNANPNANPNANPNANPNANPNANPNANPNANPNANPNANPNANPNANPNANPNANPNKNNQGNGQGHNMPNDPNRNVDENANANNAVKNNNNEEPSDKHIEQYLKKIKNSISTEWSPCSVTCGNGIQVRIKPGSANKPKDELDYENDIEKKICKMEKCSSVFNVVNSSIGLIMVLSFLFLN
modifications: full-length p(Man-TLR) polymer conjugate
In the case of B1, the “IFNγ+CD8+ cells in the lymph nodes vs CSP and R848 and CSP and AS01E” value ([3]; days 0 and 21) is reported as “induced more IFNγ+CD8+ cells in the lymph nodes”, the “splenic T follicular helper cells and total IgG response in the blood vs other treatments” value ([3]; days 0 and 21) is reported as “generated more splenic T follicular helper cells and a more robust total IgG response in the blood” and the “IFNγ+ and TNFα+ CD4+ T cells in the spleen vs other therapies” value ([3]; intradermal, 4 footpads, days 0 and 21, 10 μg CSP, 20 μg TLR agonist) is reported as “induces more IFNγ+ and TNFα+ cCD4+ T cells in the spleen”. The “highest value in the plot of antibody response to CSP regions” value (CSP peptide stretches; FIG. 21) was “approx. 60000 units” and the “breadth of IgG response” value (CSP peptide stretches; antibodies binding to CSP peptide arrays) was “induced a broader and/or qualitatively distinct IgG response”.
